Results on nine compounds are retold here after patent US5489582A, “14-deoxy-14α-cardenolides 3β-thioderivatives and pharmaceutical composition comprising same for treating cardiovascular disorders” (Sigma-Tau Industrie Farmaceutiche Riuntie S.p.A, priority 1992, dated 1996).

For test [1], the target named is T1, Na^+,K^+ -ATPase (Homo sapiens, UniProt P05023).
T1 construct: Na^+,K^+ -ATPase receptor purified according to Jorghensen; from tissue
The test can be described thus: inhibition of the activity of the purified Na+,K+-ATPase (% hydrolysis of 32P-ATP). The class given is biochemical. An excerpt: (§1) To test the affinity for the receptor site of the Na^+,K^+ -ATPase and the agonist or inhibitory activity on the enzyme, the following tests were used: a) displacement of the specific 3H-ouabain binding from the Na^+,K^+ -ATPase receptor purified according to Jorghensen (Jorghensen P., BBA, 1974, 356, 36) and Erdmann (Erdmann E. et al., Arzneim. Forsh., 1984, 34 (II), 1314); b) inhibition of the activity of the purified Na^+,K^+ -ATPase measured as % of hydrolysis of ^32 P-ATP in presence and in absence of the tested compound (Mall F. et al., Biochem. Pharmacol., 1984, 33, 47).

The target in test [2] is T1, Na^+,K^+ -ATPase. The test can be described thus: displacement of the specific 3H-ouabain binding from the purified Na+,K+-ATPase receptor.
Text: as §1

Test [3] has as its system hypertensive MHS rats. The test can be described thus: systolic blood pressure and heart rate in hypertensive MHS rats, indirect tail-cuff method, oral. The format is in vivo, rat (MHS). To be noted: n=7, 20 mg/kg os daily for ten days, in METHOCEL 0.5% w/v; for SBP (systolic blood pressure): controls 174 +/- 5.5; for HR (heart rate): controls 378 +/- 11.0. As to the method: The ability of these compounds to lower blood pressure in adult hypertensive MHS rats was tested by the following method:
systolic blood pressure (SBP) and heart rate (HR) were measured by an indirect tail-cuff method in three-month old hypertensive MHS rats before beginning treatment (basal values). The rats were then subdivided in two groups of 7 animals each, one receiving the compound and the other, the control group, receiving only the vehicle. The compound, suspended in METHOCEL® 0.5% (w/v), for ten days, was administered daily by mouth. SBP and HR were measured daily 6 and 24 hours after the treatment. When ten-day treatment washout had been under way for at least two days, whether the treatment maintains SBP low or re-establish the basal values was verified. […]

[4] abbreviates: purified Na+,K+-ATPase, 32P-ATP hydrolysis, read-out: Inhibitory Activity log. IC50 (converted).
The mark [5] stands for this setting: 3H-ouabain displacement, purified Na+,K+-ATPase, read-out: Binding ^3 H-Ouab. Displacement log. IC50 (converted).

Counter-ions that a name gives are not always drawn.

In the case of `C[C@]12CC[C@H](SCC(O)CN3CCCC3)C[C@H]1CC[C@@H]1[C@@H]2CC[C@]2(C)[C@@H](C3=CC(=O)OC3)CC[C@@H]12` (stereo partly drawn) [I-e, 3β-(3-(1-Pirrolidinyl)-2-hydroxypropylthio)-5β,14α-card-20(22)-enolide], the IC50 in test [1] (setting [4]) is 3980 nM; in test [2] (setting [5]) it was 2000 nM.

For the compound `C[C@]12CC[C@H]3[C@@H](CC=C4C[C@@H](SCCCN)CC[C@@]43C)[C@@H]1CC[C@@H]2C1=CC(=O)OC1` [I-g, 3β-(3-Aminopropylthio)-14α-card-5,20(22)-dienolide Oxalate], in test [3], the “SBP (systolic blood pressure)” value is 150 +/- 5.2 mm Hg and the “HR (heart rate)” value is reported as 383 +/- 9.6 beats/min. For the same compound, the IC50 in test [1] (setting [4]) was 2000 nM. Further, in test [2] (setting [5]), the IC50 was 1000 nM.

On to `CN(C)CCCS[C@H]1CC[C@@]2(C)[C@H](CC[C@@H]3[C@@H]2CC[C@]2(C)[C@@H](C4=CC(=O)OC4)CC[C@@H]32)C1` [I-b, 3β-(3-Dimethylaminopropylthio)-5β,14α-card-20(22)-enolide Oxalate], for which the IC50 was 3160 nM in test [1] and 1000 nM in test [2] (setting [5]).

For the compound `C[C@]12CC[C@H](SCCCN3CCNCC3)C[C@H]1CC[C@@H]1[C@@H]2CC[C@]2(C)[C@@H](C3=CC(=O)OC3)CC[C@@H]12` [I-c, 3β-(3-(1-Piperazinyl)propylthio)-5β,14α-card-20(22)-enolideDioxalate], in test [3], the “SBP (systolic blood pressure)” value was 144 +/- 6.2 mm Hg and the “HR (heart rate)” value is 390 +/- 12.0 beats/min. The IC50 in test [1] is 1580 nM. Also, the IC50 in test [2] (setting [5]) was 794 nM.

With `C[C@]12CC[C@H]3[C@@H](CCC4=C[C@@H](SCCCN)CC[C@@]43C)[C@@H]1CC[C@@H]2C1=CC(=O)OC1` [I-f, 3β-(3-Aminopropylthio)-14α-card-4,20(22)-dienolide Oxalate], in test [3], the “SBP (systolic blood pressure)” value is recorded as 148 +/- 5.6 mm Hg and the “HR (heart rate)” value is reported as 386 +/- 9.3 beats/min. In test [1] (setting [4]), the IC50 was 3160 nM. Moreover, the IC50 in test [2] (setting [5]) was 1260 nM.

Take `C[C@]12CC[C@H](O)C[C@H]1CC[C@@H]1[C@@H]2CC[C@]2(C)[C@@H](C3=CC(=O)OC3)CC[C@]12O` [DIGI, digitoxigenin, reference compound]: in test [3], the “SBP (systolic blood pressure)” value is given as 173 +/- 4.0 mm Hg and the “HR (heart rate)” value was 380 +/- 10.0 beats/min.

Consider `C[C@]12CC[C@H](SCCCN)C[C@@H]1CC[C@@H]1[C@@H]2CC[C@]2(C)[C@@H](C3=CC(=O)OC3)CC[C@@H]12` [I-h, 3β-(3-Aminopropylthio)-5α,14α-card-20(22)-enolide Oxalate], for which, in test [3], the “SBP (systolic blood pressure)” value is 158 +/- 5.4 mm Hg and the “HR (heart rate)” value was 379 +/- 10.4 beats/min. This compound gave an IC50 in test [1] of 3980 nM. Besides, the IC50 in test [2] was 1580 nM.

Turning to `C[C@]12CC[C@H](SCCN3CCCC3)C[C@H]1CC[C@@H]1[C@@H]2CC[C@]2(C)[C@@H](C3=CC(=O)OC3)CC[C@@H]12` [I-a, 3β-(2-(1-Pyrrolidinyl)ethylthio)-5β,14α-card-20(22)-enolideOxalate], the IC50 in test [1] is 5010 nM; in test [2] (setting [5]), 3160 nM.

With `C[C@]12CC[C@H](SCCCN)C[C@H]1CC[C@@H]1[C@@H]2CC[C@]2(C)[C@@H](C3=CC(=O)OC3)CC[C@@H]12` [I-d, 3β-(3-Aminopropylthio)-5β,14α-card-20(22)-enolide Oxalate], in test [3], the “SBP (systolic blood pressure)” value is reported as 154 +/- 5.2 mm Hg and the “HR (heart rate)” value is 384 +/- 10.3 beats/min. Also, the IC50 in test [1] was 2000 nM. This compound also had an IC50 in test [2] of 1260 nM.
